Laboratory results: PMC6026274, “A GLP-1:CCK fusion peptide harnesses the synergistic effects on metabolism of CCK-1 and GLP-1 receptor agonism in mice” (Appetite, 2018)
Starred links: 1 amine or outer side, 2 acyl side, 3 side chain; linkers in the order of their positions; H or OH if unused. Non-standard residues stand in square brackets, D forms with d. Residues, ends and D or L forms follow the SMILES beside them. Groups on a side chain read outwards from the residue. *: point of attachment. NMeF = CN[C@@H](Cc1ccccc1)C(=O)O; NH(2-Me-phenyl) = Cc1ccccc1N*; Nle = CCCC[C@H](N)C(=O)O; X1 = O=C(Cc1ccc(O)cc1)*; CO = O=C([*:1])[*:2]

Assays:
[1] = system: diet-induced obese (DIO) C57BL6 mice; assay: Pharmacology study in DIO mice; format: in vivo; settings: AC3174 and AC170222 7 nmol/kg each, C2816 and (pGlu-Gln)-CCK-8/exendin-4 50 nmol/kg
Experimental: Obese male 10-week old C57BL6 mice (Jackson Laboratory) on high-fat diet (D12492, 60% kcal/fat, Research Diets) were single housed upon arrival and allowed to acclimate for 2 weeks. On day −3 mice were weighed and randomized to treatment groups (n = 8/group) based on body weight, with each mouse dosed once daily with two compounds or vehicle administered separately. […] Drug was administered once daily for 10 days intraperitoneally (5 mL/kg) 2 h prior to lights off.

Sprague Dawley rats = assay: Kaolin intake in lean rats; format: in vivo; settings: overnight fasted lean rats, single i.p. injection; C2816 7 or 50 nmol/kg, cisplatin 10 mg/kg; vs vehicle; n = 9/group
Experimental: After the acclimation period, rats were given chow and kaolin diet (K50001, Research Diets, Billerica, MA) in adjacent separate compartments in a divided food hopper. Rats were randomized to treatment groups based on 24 h chow intake, 24 h kaolin intake and body weight (n = 9/group). […] Cisplatin (10 mg/kg; Sigma-Aldrich, St Louis, MO) was administered i.p. as a positive control. Chow and kaolin intake was recorded at 4 and 24 h. A final body weight was also recorded at 24 h.

[2] = terminal plasma, day 10, once daily i.p., mean ± SEM, n = 8, SEM

CCCC[C@H](NC(=O)Cc1ccc(O)cc1)C(=O)NCC(=O)N[C@@H](Cc1c[nH]c2ccccc12)C(=O)N[C@@H](CCCCNC(=O)Nc1ccccc1C)C(=O)N[C@@H](CC(=O)O)C(=O)N(C)[C@@H](Cc1ccccc1)C(N)=O [AC170222] (X1-[Nle]GWK([CO-NH(2-Me-phenyl)])D[NMeF]-NH2)
Body weight change ([1]; DIO mice, once daily i.p. for 10 days, n = 8/group): did not affect
Glucose ([1]; terminal non-fasted blood glucose, day 10, once daily i.p., mean ± SEM, n = 8, SEM): 280 ± 11 mg/dL
ALT [1, 2]: 86 ± 32 U/L
AST [1, 2]: 95 ± 27 U/L
Amylase [1, 2]: 2759 ± 75 U/L
Cholesterol [1, 2]: 192 ± 28 mg/dL
Insulin [1, 2]: 11.3 ± 4.1 ng/mL
Lipase [1, 2]: 77 ± 49 U/L
Triglycerides [1, 2]: 114 ± 6 mg/dL

N.N.[Cl][Pt][Cl] [cisplatin, Cisplatin]
Food (chow) intake at 4 h and 24 h post-dose (Sprague Dawley rats): similarly reduced food intake as high dose C2816
